The target of the test is recombinant human His-ATG7 enzyme (Homo sapiens (Human), UniProt O95352). In words: ATG7 Enzyme Assay (HTRF/FRET, ATG3-GST and Flag-Gabarap). It counts as biochemical. The following applies: for inhibition at 0.111 µM: Concentration 0.111 μM; for inhibition at 0.111 µM / inhibition at 0.069 µM / inhibition at 0.123 µM: read-out: Percent Inhibition; for inhibition at 0.069 µM: Concentration 0.069 μM; for inhibition at 0.123 µM: Concentration 0.123 μM. In short, it runs like this:
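0.15 nM His-ATG7 was reacted with 5 nM ATG3-GST, 5 nM Flag-Gabarap and 10 μM ATP in HEPES pH 7.5 containing MgCl2, GSH and TCEP for 105 min at 24° C, then stopped with EDTA/KF. Eu-anti-Flag and anti-GST-APC HTRF was read after 2 h. Results are given as single-concentration % inhibition or IC50.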

Some results are limits rather than exact numbers.

Sequence of recombinant human His-ATG7 enzyme (O95352 whole entry): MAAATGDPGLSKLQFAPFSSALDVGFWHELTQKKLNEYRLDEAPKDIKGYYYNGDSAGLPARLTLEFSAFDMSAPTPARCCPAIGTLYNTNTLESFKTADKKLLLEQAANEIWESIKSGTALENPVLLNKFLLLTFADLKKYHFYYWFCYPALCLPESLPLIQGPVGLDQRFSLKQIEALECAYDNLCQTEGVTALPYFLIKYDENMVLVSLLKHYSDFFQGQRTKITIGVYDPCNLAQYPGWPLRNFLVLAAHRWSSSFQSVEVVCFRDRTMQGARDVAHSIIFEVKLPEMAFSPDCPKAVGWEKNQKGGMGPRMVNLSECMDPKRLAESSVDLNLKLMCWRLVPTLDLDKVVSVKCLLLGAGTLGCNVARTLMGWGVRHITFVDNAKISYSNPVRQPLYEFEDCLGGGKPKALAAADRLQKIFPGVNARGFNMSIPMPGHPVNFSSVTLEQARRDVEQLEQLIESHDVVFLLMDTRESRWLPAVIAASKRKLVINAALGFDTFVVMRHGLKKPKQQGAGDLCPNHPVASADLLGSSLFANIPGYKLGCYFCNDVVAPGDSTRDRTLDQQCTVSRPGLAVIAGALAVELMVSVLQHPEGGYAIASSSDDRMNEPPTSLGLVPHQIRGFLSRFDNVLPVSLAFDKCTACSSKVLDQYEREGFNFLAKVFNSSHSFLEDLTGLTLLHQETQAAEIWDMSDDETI

On to `Nc1ncnc2c1c(Sc1cn[nH]c1)nn2[C@@H]1O[C@H](COS(N)(=O)=O)[C@@H](O)[C@H]1O` [Compound I-36, {(2R,3S,4R,5R)-5-[4-amino-3-(1H-pyrazol-4-ylsulfanyl)-1H-pyrazolo[3,4-d]pyrimidin-1-yl]-3,4-dihydroxytetrahydrofuran-2-yl}methyl sulfamate], for which the half-maximal inhibitory concentration (IC50) is under 20 nM and the inhibition at 0.111 µM was determined as 88%.

On to `Nc1ncnc2c1c(Oc1ccccc1)nn2[C@@H]1O[C@H](COS(N)(=O)=O)[C@@H](O)[C@H]1O` [Compound I-37, [(2R,3S,4R,5R)-5-(4-amino-3-phenoxy-1H-pyrazolo[3,4-d]pyrimidin-1-yl)-3,4-dihydroxytetrahydrofuran-2-yl]methyl sulfamate], for which the half-maximal inhibitory concentration (IC50) is over 500 nM and the inhibition at 0.069 µM is 7%.

Consider `COc1ccc(CSc2nn([C@@H]3O[C@H](COS(N)(=O)=O)[C@@H](O)[C@H]3O)c3ncnc(N)c23)cc1` [Compound I-38, [(2R,3S,4R,5R)-5-{4-amino-3-[(4-methoxybenzyl)sulfanyl]-1H-pyrazolo[3,4-d]pyrimidin-1-yl}-3,4-dihydroxytetrahydrofuran-2-yl]methyl sulfamate], for which the half-maximal inhibitory concentration (IC50) was in the range of 20 to 50 nM and the inhibition at 0.123 µM came to 84%.

`Cc1ccccc1CSc1nn([C@@H]2O[C@H](COS(N)(=O)=O)[C@@H](O)[C@H]2O)c2ncnc(N)c12` [Compound I-39, [(2R,3S,4R,5R)-5-{4-amino-3-[(2-methylbenzyl)sulfanyl]-1H-pyrazolo[3,4-d]pyrimidin-1-yl}-3,4-dihydroxytetrahydrofuran-2-yl]methyl sulfamate]: the concentration for half-maximal inhibition (IC50) fell in the range of 20 to 50 nM and the inhibition at 0.123 µM was 75%.

With `Nc1ncnc2c1c(Sc1cccc(Cl)c1)nn2[C@@H]1O[C@H](COS(N)(=O)=O)[C@@H](O)[C@H]1O` [Compound I-40, [(2R,3S,4R,5R)-5-{4-amino-3-[(3-chlorophenyl)sulfanyl]-1H-pyrazolo[3,4-d]pyrimidin-1-yl}-3,4-dihydroxytetrahydrofuran-2-yl]methyl sulfamate], the half-maximal inhibitory concentration (IC50) was under 20 nM and the inhibition at 0.123 µM is 85%.

Consider `Cc1ccc(CSc2nn([C@@H]3O[C@H](COS(N)(=O)=O)[C@@H](O)[C@H]3O)c3ncnc(N)c23)cc1` [Compound I-41, [(2R,3S,4R,5R)-5-{4-amino-3-[(4-methylbenzyl)sulfanyl]-1H-pyrazolo[3,4-d]pyrimidin-1-yl}-3,4-dihydroxytetrahydrofuran-2-yl]methyl sulfamate], for which the IC50 was in the range of 20 to 50 nM and the inhibition at 0.111 µM turned out to be 85%.

Regarding `CSc1nn([C@@H]2O[C@H](COS(N)(=O)=O)[C@@H](O)[C@H]2O)c2ncnc(N)c12` [Compound I-42, {(2R,3S,4R,5R)-5-[4-amino-3-(methylsulfanyl)-1H-pyrazolo[3,4-d]pyrimidin-1-yl]-3,4-dihydroxytetrahydrofuran-2-yl}methyl Sulfamate], the IC50 was under 20 nM and the inhibition at 0.111 µM stood at 79%.

With `C#CCSc1nn([C@@H]2O[C@H](COS(N)(=O)=O)[C@@H](O)[C@H]2O)c2ncnc(N)c12` [Compound I-43, {(2R,3S,4R,5R)-5-[4-amino-3-(prop-2-yn-1-ylsulfanyl)-1H-pyrazolo[3,4-d]pyrimidin-1-yl]-3,4-dihydroxytetrahydrofuran-2-yl}methyl sulfamate], the IC50 was in the range of 20 to 50 nM and the inhibition at 0.123 µM is 75%.

As for `Nc1ncnc2c1c(SCc1cccc(F)c1)nn2[C@@H]1O[C@H](COS(N)(=O)=O)[C@@H](O)[C@H]1O` [Compound I-44, [(2R,3S,4R,5R)-5-{4-amino-3-[(3-fluorobenzyl)sulfanyl]-1H-pyrazolo[3,4-d]pyrimidin-1-yl}-3,4-dihydroxytetrahydrofuran-2-yl]methyl sulfamate], the IC50 was in the range of 20 to 50 nM and the inhibition at 0.123 µM came to 84%.

As to `Nc1ncnc2c1c(SCc1cccnc1)nn2[C@@H]1O[C@H](COS(N)(=O)=O)[C@@H](O)[C@H]1O` [Compound I-45, [(2R,3S,4R,5R)-5-{4-amino-3-[(pyridin-3-ylmethyl)sulfanyl]-1H-pyrazolo[3,4-d]pyrimidin-1-yl}-3,4-dihydroxytetrahydrofuran-2-yl]methyl sulfamate], the 50% inhibitory concentration (IC50) was in the range of 20 to 50 nM and the inhibition at 0.123 µM turned out to be 73%.

On to `Nc1ncnc2c1c(SCCO)nn2[C@@H]1O[C@H](COS(N)(=O)=O)[C@@H](O)[C@H]1O` [Compound I-46, [(2R,3S,4R,5R)-5-{4-amino-3-[(2-hydroxyethyl)sulfanyl]-1H-pyrazolo[3,4-d]pyrimidin-1-yl}-3,4-dihydroxytetrahydrofuran-2-yl]methyl sulfamate], for which the half-inhibitory concentration (IC50) is under 20 nM and the inhibition at 0.123 µM turned out to be 88%.

On to `Nc1ncnc2c1cnn2[C@@H]1O[C@H](COS(N)(=O)=O)[C@@H](O)[C@H]1O` [Compound I-48, [(2R,3S,4R,5R)-5-(4-amino-1H-pyrazolo[3,4-d]pyrimidin-1-yl)-3,4-dihydroxytetrahydrofuran-2-yl]methyl sulfamate], for which the half-maximal inhibitory concentration (IC50) is 100 to 500 nM and the inhibition at 0.069 µM came to 16%.

Regarding `Nc1ncnc2c1c(-c1ccccc1)nn2[C@@H]1O[C@H](COS(N)(=O)=O)[C@@H](O)[C@H]1O` [Compound I-49, [(2R,3S,4R,5R)-5-(4-amino-3-phenyl-1H-pyrazolo[3,4-d]pyrimidin-1-yl)-3,4-dihydroxytetrahydrofuran-2-yl]methyl Sulfamate], the concentration for half-maximal inhibition (IC50) was over 500 nM and the inhibition at 0.069 µM turned out to be 7%.

Take `Nc1ncnc2c1c(SCC1CC1)nn2[C@@H]1O[C@H](COS(N)(=O)=O)[C@@H](O)[C@H]1O` [Compound I-50, [(2R,3S,4R,5R)-5-{4-amino-3-[(cyclopropylmethyl)sulfanyl]-1H-pyrazolo[3,4-d]pyrimidin-1-yl}-3,4-dihydroxytetrahydrofuran-2-yl]methyl sulfamate]: the IC50 is under 20 nM and the inhibition at 0.111 µM is 88%.

On to `CCSc1nn([C@@H]2O[C@H](COS(N)(=O)=O)[C@@H](O)[C@H]2O)c2ncnc(N)c12` [Compound I-51, {(2R,3S,4R,5R)-5-[4-amino-3-(ethylsulfanyl)-1H-pyrazolo[3,4-d]pyrimidin-1-yl]-3,4-dihydroxytetrahydrofuran-2-yl}methyl sulfamate], for which the IC50 was in the range of 20 to 50 nM and the inhibition at 0.123 µM was 85%.

As to `Nc1ncnc2c1c(SCc1ccccc1)nn2[C@@H]1O[C@H](COS(N)(=O)=O)[C@@H](O)[C@H]1O` [Compound I-52, {(2R,3S,4R,5R)-5-[4-amino-3-(benzylsulfanyl)-1H-pyrazolo[3,4-d]pyrimidin-1-yl]-3,4-dihydroxytetrahydrofuran-2-yl}methyl sulfamate], the half-maximal inhibitory concentration (IC50) is 20 to 50 nM and the inhibition at 0.123 µM worked out at 83%.

Turning to `CC(C)(C)Sc1nn([C@@H]2O[C@H](COS(N)(=O)=O)[C@@H](O)[C@H]2O)c2ncnc(N)c12` [Compound I-53, {(2R,3S,4R,5R)-5-[4-amino-3-(tert-butylsulfanyl)-1H-pyrazolo[3,4-d]pyrimidin-1-yl]-3,4-dihydroxytetrahydrofuran-2-yl}methyl sulfamate], the IC50 is 20 to 50 nM and the inhibition at 0.123 µM came to 82%.

With `Nc1ncnc2c1c(SC1CCC1)nn2[C@@H]1O[C@H](COS(N)(=O)=O)[C@@H](O)[C@H]1O` [Compound I-56, {(2R,3S,4R,5R)-5-[4-amino-3-(cyclobutylsulfanyl)-1H-pyrazolo[3,4-d]pyrimidin-1-yl]-3,4-dihydroxytetrahydrofuran-2-yl}methyl sulfamate], the half-inhibitory concentration (IC50) was under 20 nM and the inhibition at 0.111 µM was 84%.

With `Nc1ncnc2c1c(-c1ncco1)nn2[C@@H]1O[C@H](COS(N)(=O)=O)[C@@H](O)[C@H]1O` [Compound I-57, {(2R,3S,4R,5R)-5-[4-amino-3-(1,3-oxazol-2-yl)-1H-pyrazolo[3,4-d]pyrimidin-1-yl]-3,4-dihydroxytetrahydrofuran-2-yl}methyl sulfamate], the half-inhibitory concentration (IC50) was over 500 nM and the inhibition at 0.123 µM came to 13%.

Consider `CC(C)Sc1nn([C@@H]2O[C@H](COS(N)(=O)=O)[C@@H](O)[C@H]2O)c2ncnc(N)c12` [Compound I-58, {(2R,3S,4R,5R)-5-[4-amino-3-(isopropylsulfanyl)-1H-pyrazolo[3,4-d]pyrimidin-1-yl]-3,4-dihydroxytetrahydrofuran-2-yl}methyl Sulfamate], for which the IC50 is under 20 nM and the inhibition at 0.123 µM is 87%.

`Nc1ncnc2c1c(SCc1ccccn1)nn2[C@@H]1O[C@H](COS(N)(=O)=O)[C@@H](O)[C@H]1O` [Compound I-59, [(2R,3S,4R,5R)-5-{4-amino-3-[(pyridin-2-ylmethyl)sulfanyl]-1H-pyrazolo[3,4-d]pyrimidin-1-yl}-3,4-dihydroxytetrahydrofuran-2-yl]methyl sulfamate]: the IC50 lay within 20 to 50 nM and the inhibition at 0.123 µM turned out to be 75%.

Consider `NC(=S)c1nn([C@@H]2O[C@H](COS(N)(=O)=O)[C@@H](O)[C@H]2O)c2ncnc(N)c12` [Compound I-60, [(2R,3S,4R,5R)-5-(4-amino-3-carbamothioyl-1H-pyrazolo[3,4-d]pyrimidin-1-yl)-3,4-dihydroxytetrahydrofuran-2-yl]methyl Sulfamate], for which the IC50 lay in the range of 50 to 100 nM and the inhibition at 0.123 µM came to 59%.

Regarding `Cn1cc(Sc2nn([C@@H]3O[C@H](COS(N)(=O)=O)[C@@H](O)[C@H]3O)c3ncnc(N)c23)cn1` [Compound I-61, [(2R,3S,4R,5R)-5-{4-amino-3-[(1-methyl-1H-pyrazol-4-yl)sulfanyl]-1H-pyrazolo[3,4-d]pyrimidin-1-yl}-3,4-dihydroxytetrahydrofuran-2-yl]methyl sulfamate], the IC50 lay in the range of 20 to 50 nM and the inhibition at 0.123 µM is 83%.

The record behind these values is patent US10865208B2, “ATG7 inhibitors and the uses thereof” (Millennium Pharmaceuticals, Inc., priority 2016, dated 2020).
